Test results from PubChem BioAssay (NCI).
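Step 1: Grow cells in 96-well plates. Step 2: Expose to compound for 48 hours at 5 concentrations. Step 3: Interpolate endpoints linearly; if unreached, use highest concentration. TGI is the concentration that stops growth completely.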

Tests used:
Test in all cases: NCI tumour cell line growth inhibition, 48 h
OVCAR-8 ovarian = test system: OVCAR-8 ovarian
A498 renal = test system: A498 renal
U251 CNS = test system: U251 CNS
NCI-H23 lung = test system: NCI-H23 lung
EKVX NSCLC = test system: EKVX NSCLC
UACC-257 melanoma = test system: UACC-257 melanoma
MALME-3M melanoma = test system: MALME-3M melanoma
SNB-75 CNS = test system: SNB-75 CNS
COLO 205 colon = test system: COLO 205 colon
SK-MEL-5 melanoma = test system: SK-MEL-5 melanoma
TK-10 renal = test system: TK-10 renal
MDA-MB-435 = test system: MDA-MB-435
ACHN renal = test system: ACHN renal
RPMI-8226 leukemia = test system: RPMI-8226 leukemia
CAKI-1 renal = test system: CAKI-1 renal
HOP-62 NSCLC = test system: HOP-62 NSCLC
SNB-19 CNS = test system: SNB-19 CNS
T-47D breast = test system: T-47D breast
NCI-H460 lung = test system: NCI-H460 lung
MOLT-4 leukemia = test system: MOLT-4 leukemia
A549 NSCLC = test system: A549 NSCLC
HT29 colon = test system: HT29 colon
SK-OV-3 ovarian = test system: SK-OV-3 ovarian
BT-549 breast = test system: BT-549 breast
DU-145 prostate = test system: DU-145 prostate
HOP-92 NSCLC = test system: HOP-92 NSCLC
RXF 393 renal = test system: RXF 393 renal
SF-295 CNS = test system: SF-295 CNS
OVCAR-5 ovarian = test system: OVCAR-5 ovarian
SK-MEL-2 melanoma = test system: SK-MEL-2 melanoma
OVCAR-3 ovarian = test system: OVCAR-3 ovarian
PC-3 prostate = test system: PC-3 prostate
HCC-2998 colon = test system: HCC-2998 colon
NCI-H522 lung = test system: NCI-H522 lung
786-0 renal = test system: 786-0 renal
NCI/ADR-RES ovarian = test system: NCI/ADR-RES ovarian
IGROV1 ovarian = test system: IGROV1 ovarian
UACC-62 melanoma = test system: UACC-62 melanoma
NCI-H226 lung = test system: NCI-H226 lung
CCRF-CEM leukemia = test system: CCRF-CEM leukemia
MDA-N = test system: MDA-N
SR leukemia = test system: SR leukemia
SW-620 colon = test system: SW-620 colon
OVCAR-4 ovarian = test system: OVCAR-4 ovarian
LOX IMVI melanoma = test system: LOX IMVI melanoma
HS 578T breast = test system: HS 578T breast
SF-539 CNS = test system: SF-539 CNS
MCF7 breast = test system: MCF7 breast
HCT-116 colon = test system: HCT-116 colon
SF-268 CNS = test system: SF-268 CNS
MDA-MB-231 breast = test system: MDA-MB-231 breast
KM12 colon = test system: KM12 colon
SN12C renal = test system: SN12C renal
K-562 leukemia = test system: K-562 leukemia
SK-MEL-28 melanoma = test system: SK-MEL-28 melanoma
UO-31 renal = test system: UO-31 renal
HCT-15 colon = test system: HCT-15 colon
HL-60(TB) leukemia = test system: HL-60(TB) leukemia
M14 melanoma = test system: M14 melanoma

## COc1cc(-c2[o+]c3cc(O)cc(O)c3cc2O)cc(O)c1O
OVCAR-8 ovarian
  TGI: > 100 µM
A498 renal
  TGI: > 100 µM
U251 CNS
  TGI: > 100 µM
NCI-H23 lung
  TGI: > 100 µM
EKVX NSCLC
  TGI: > 100 µM
UACC-257 melanoma
  TGI: > 100 µM
MALME-3M melanoma
  TGI: > 100 µM
SNB-75 CNS
  TGI: > 100 µM
COLO 205 colon
  TGI: > 100 µM
SK-MEL-5 melanoma
  TGI: > 100 µM
TK-10 renal
  TGI: > 100 µM
MDA-MB-435
  TGI: 38.3 µM
ACHN renal
  TGI: > 100 µM
RPMI-8226 leukemia
  TGI: > 100 µM
CAKI-1 renal
  TGI: > 100 µM
HOP-62 NSCLC
  TGI: > 100 µM
SNB-19 CNS
  TGI: > 100 µM
T-47D breast
  TGI: > 100 µM
NCI-H460 lung
  TGI: > 100 µM
MOLT-4 leukemia
  TGI: > 100 µM
A549 NSCLC
  TGI: > 100 µM
HT29 colon
  TGI: > 100 µM
SK-OV-3 ovarian
  TGI: > 100 µM
BT-549 breast
  TGI: > 100 µM
DU-145 prostate
  TGI: > 100 µM
HOP-92 NSCLC
  TGI: > 100 µM
RXF 393 renal
  TGI: > 100 µM
SF-295 CNS
  TGI: > 100 µM
OVCAR-5 ovarian
  TGI: > 100 µM
SK-MEL-2 melanoma
  TGI: > 100 µM
OVCAR-3 ovarian
  TGI: > 100 µM
PC-3 prostate
  TGI: > 100 µM
HCC-2998 colon
  TGI: > 100 µM
NCI-H522 lung
  TGI: > 100 µM
786-0 renal
  TGI: > 100 µM
NCI/ADR-RES ovarian
  TGI: > 100 µM
IGROV1 ovarian
  TGI: > 100 µM
UACC-62 melanoma
  TGI: > 100 µM
NCI-H226 lung
  TGI: > 100 µM
CCRF-CEM leukemia
  TGI: 75.9 µM
MDA-N
  TGI: > 100 µM
SR leukemia
  TGI: > 100 µM
SW-620 colon
  TGI: > 100 µM
OVCAR-4 ovarian
  TGI: > 100 µM
LOX IMVI melanoma
  TGI: > 100 µM
HS 578T breast
  TGI: > 100 µM
SF-539 CNS
  TGI: > 100 µM
MCF7 breast
  TGI: 46.3 µM
HCT-116 colon
  TGI: > 100 µM
SF-268 CNS
  TGI: > 100 µM
MDA-MB-231 breast
  TGI: > 100 µM
KM12 colon
  TGI: > 100 µM
SN12C renal
  TGI: > 100 µM
K-562 leukemia
  TGI: > 100 µM
SK-MEL-28 melanoma
  TGI: > 100 µM
UO-31 renal
  TGI: > 100 µM
HCT-15 colon
  TGI: > 100 µM
HL-60(TB) leukemia
  TGI: > 100 µM
M14 melanoma
  TGI: > 100 µM

## C[N+](C)(C)CC(=O)N/N=C/c1ccncc1
OVCAR-8 ovarian
  TGI: > 100 µM
A498 renal
  TGI: > 100 µM
U251 CNS
  TGI: > 100 µM
NCI-H23 lung
  TGI: > 100 µM
EKVX NSCLC
  TGI: > 100 µM
UACC-257 melanoma
  TGI: > 100 µM
MALME-3M melanoma
  TGI: > 100 µM
SNB-75 CNS
  TGI: > 100 µM
COLO 205 colon
  TGI: > 100 µM
SK-MEL-5 melanoma
  TGI: > 100 µM
TK-10 renal
  TGI: > 100 µM
MDA-MB-435
  TGI: > 100 µM
ACHN renal
  TGI: > 100 µM
RPMI-8226 leukemia
  TGI: > 100 µM
CAKI-1 renal
  TGI: > 100 µM
HOP-62 NSCLC
  TGI: > 100 µM
SNB-19 CNS
  TGI: > 100 µM
T-47D breast
  TGI: > 100 µM
NCI-H460 lung
  TGI: > 100 µM
MOLT-4 leukemia
  TGI: > 100 µM
A549 NSCLC
  TGI: > 100 µM
HT29 colon
  TGI: > 100 µM
SK-OV-3 ovarian
  TGI: > 100 µM
BT-549 breast
  TGI: > 100 µM
DU-145 prostate
  TGI: > 100 µM
HOP-92 NSCLC
  TGI: > 100 µM
RXF 393 renal
  TGI: > 100 µM
SF-295 CNS
  TGI: > 100 µM
OVCAR-5 ovarian
  TGI: > 100 µM
SK-MEL-2 melanoma
  TGI: > 100 µM
OVCAR-3 ovarian
  TGI: > 100 µM
PC-3 prostate
  TGI: > 100 µM
NCI-H522 lung
  TGI: > 100 µM
786-0 renal
  TGI: > 100 µM
NCI/ADR-RES ovarian
  TGI: > 100 µM
IGROV1 ovarian
  TGI: > 100 µM
UACC-62 melanoma
  TGI: > 100 µM
NCI-H226 lung
  TGI: > 100 µM
CCRF-CEM leukemia
  TGI: > 100 µM
MDA-N
  TGI: > 100 µM
SR leukemia
  TGI: > 100 µM
SW-620 colon
  TGI: > 100 µM
OVCAR-4 ovarian
  TGI: > 100 µM
LOX IMVI melanoma
  TGI: > 100 µM
HS 578T breast
  TGI: > 100 µM
SF-539 CNS
  TGI: > 100 µM
MCF7 breast
  TGI: > 100 µM
HCT-116 colon
  TGI: > 100 µM
SF-268 CNS
  TGI: > 100 µM
MDA-MB-231 breast
  TGI: > 100 µM
KM12 colon
  TGI: > 100 µM
SN12C renal
  TGI: > 100 µM
K-562 leukemia
  TGI: > 100 µM
SK-MEL-28 melanoma
  TGI: > 100 µM
UO-31 renal
  TGI: > 100 µM
HCT-15 colon
  TGI: > 100 µM
HL-60(TB) leukemia
  TGI: > 100 µM
M14 melanoma
  TGI: > 100 µM

## O=C1C=CC(=O)c2c1ccc1c3ccccc3n(Cc3cccc([N+](=O)[O-])c3)c21
OVCAR-8 ovarian
  TGI: > 100 µM
A498 renal
  TGI: > 100 µM
U251 CNS
  TGI: > 100 µM
NCI-H23 lung
  TGI: 50.4 µM
EKVX NSCLC
  TGI: > 100 µM
UACC-257 melanoma
  TGI: 60.1 µM
MALME-3M melanoma
  TGI: 40 µM
SNB-75 CNS
  TGI: > 100 µM
COLO 205 colon
  TGI: 21.2 µM
SK-MEL-5 melanoma
  TGI: > 100 µM
TK-10 renal
  TGI: 44.8 µM
MDA-MB-435
  TGI: > 65.2 µM
ACHN renal
  TGI: 38 µM
RPMI-8226 leukemia
  TGI: > 55.8 µM
CAKI-1 renal
  TGI: 31 µM
HOP-62 NSCLC
  TGI: > 100 µM
SNB-19 CNS
  TGI: > 100 µM
T-47D breast
  TGI: 67.7 µM
NCI-H460 lung
  TGI: > 100 µM
MOLT-4 leukemia
  TGI: 37.7 µM
A549 NSCLC
  TGI: > 100 µM
HT29 colon
  TGI: > 73.1 µM
SK-OV-3 ovarian
  TGI: > 100 µM
BT-549 breast
  TGI: > 69.7 µM
DU-145 prostate
  TGI: > 100 µM
HOP-92 NSCLC
  TGI: 43.7 µM
RXF 393 renal
  TGI: 39.2 µM
SF-295 CNS
  TGI: > 100 µM
OVCAR-5 ovarian
  TGI: > 100 µM
SK-MEL-2 melanoma
  TGI: > 100 µM
OVCAR-3 ovarian
  TGI: 34.6 µM
PC-3 prostate
  TGI: > 69 µM
HCC-2998 colon
  TGI: > 100 µM
NCI-H522 lung
  TGI: 37.2 µM
786-0 renal
  TGI: > 61.4 µM
NCI/ADR-RES ovarian
  TGI: > 90.3 µM
IGROV1 ovarian
  TGI: 54.7 µM
UACC-62 melanoma
  TGI: > 78.6 µM
NCI-H226 lung
  TGI: > 100 µM
CCRF-CEM leukemia
  TGI: 23 µM
MDA-N
  TGI: 26.3 µM
SR leukemia
  TGI: > 32.6 µM
SW-620 colon
  TGI: 32.4 µM
OVCAR-4 ovarian
  TGI: > 63.8 µM
LOX IMVI melanoma
  TGI: > 100 µM
HS 578T breast
  TGI: > 100 µM
SF-539 CNS
  TGI: > 80.6 µM
MCF7 breast
  TGI: 65.6 µM
HCT-116 colon
  TGI: > 62.7 µM
SF-268 CNS
  TGI: > 100 µM
MDA-MB-231 breast
  TGI: 61.1 µM
KM12 colon
  TGI: > 100 µM
SN12C renal
  TGI: 49.1 µM
K-562 leukemia
  TGI: > 59.9 µM
SK-MEL-28 melanoma
  TGI: > 60.4 µM
UO-31 renal
  TGI: > 100 µM
HCT-15 colon
  TGI: 50.2 µM
HL-60(TB) leukemia
  TGI: 15.3 µM
M14 melanoma
  TGI: 71.7 µM
